In brackets after ≈: the same amount, converted by molar mass.
How the values were obtained:
Pseudomonas aeruginosa [1] = test: Antimicrobial activity against Pseudomonas aeruginosa 1771M; assay type: functional
Streptococcus pyogenes [2] = test: Antimicrobial activity against Streptococcus pyogenes 308A; assay type: functional
Escherichia coli = test: Antimicrobial activity against Escherichia coli DC2; assay type: functional
Pseudomonas aeruginosa [3] = test: Antimicrobial activity against Pseudomonas aeruginosa 9027; assay type: functional
Enterobacter cloacae = test: Antimicrobial activity against Enterobacter cloacae 1321E; assay type: functional
Staphylococcus aureus = test: Antimicrobial activity against Staphylococcus aureus 503; assay type: functional
Streptococcus pyogenes [4] = test: Antimicrobial activity against Streptococcus pyogenes 77A; assay type: functional
Salmonella typhimurium = test: Antimicrobial activity against Salmonella Typhimurium; assay type: functional, Salmonella enterica subsp. enterica serovar Typhimurium; conditions: Salmonella enterica

How did the MIC (Pseudomonas aeruginosa [1]) turn out when CC(COS(=O)(=O)O)[C@H]1CC[C@H]2[C@@H]3[C@@H](F)C[C@H]4C[C@@H](NCCCNCCCCN)CC[C@]4(C)[C@H]3CC[C@]12C (single isomer, unassigned) was run?
Its MIC is 50 µg/mL (≈ 89.3 µM).

And the MIC (Streptococcus pyogenes [2])?
The MIC was 50 µg/mL (≈ 89.3 µM).

What about the MIC (Escherichia coli) of the same compound?
The MIC was 25 µg/mL (≈ 44.7 µM).

And the MIC (Pseudomonas aeruginosa [3])?
The MIC was 50 µg/mL (≈ 89.3 µM).

And the MIC (Enterobacter cloacae)?
The MIC was 50 µg/mL (≈ 89.3 µM).

What about the MIC (Staphylococcus aureus) of the same compound?
Its MIC is 50 µg/mL (≈ 89.3 µM).

What about the MIC (Streptococcus pyogenes [4]) of the same compound?
The MIC was 50 µg/mL (≈ 89.3 µM).

And the MIC (Salmonella typhimurium)?
The MIC was 50 µg/mL (≈ 89.3 µM).

How did the MIC (Pseudomonas aeruginosa [1]) turn out when CC(CO)[C@H]1CC[C@H]2[C@@H]3[C@H](F)C[C@H]4C[C@H](NCCCNCCCCN)CC[C@]4(C)[C@H]3CC[C@]12C (single isomer, unassigned) was run?
Its MIC is 100 µg/mL (≈ 208 µM).

What about the MIC (Streptococcus pyogenes [2]) of the same compound?
Its MIC is 25 µg/mL (≈ 52.1 µM).

And the MIC (Escherichia coli)?
Its MIC is 50 µg/mL (≈ 104 µM).

And the MIC (Pseudomonas aeruginosa [3])?
Its MIC is 50 µg/mL (≈ 104 µM).

And the MIC (Enterobacter cloacae)?
Its MIC is 100 µg/mL (≈ 208 µM).

And the MIC (Staphylococcus aureus)?
The MIC was 12.5 µg/mL (≈ 26.1 µM).

And the MIC (Streptococcus pyogenes [4])?
The MIC was 12.5 µg/mL (≈ 26.1 µM).

What about the MIC (Salmonella typhimurium) of the same compound?
Its MIC is 100 µg/mL (≈ 208 µM).

How did the MIC (Pseudomonas aeruginosa [1]) turn out when CC(COS(=O)(=O)O)[C@H]1CC[C@H]2[C@@H]3[C@@H](F)C[C@H]4C[C@H](NCCCNCCCCN)CC[C@]4(C)[C@H]3CC[C@]12C (single isomer, unassigned) was run?
The MIC was 50 µg/mL (≈ 89.3 µM).

What about the MIC (Streptococcus pyogenes [2]) of the same compound?
The MIC was 25 µg/mL (≈ 44.7 µM).

And the MIC (Escherichia coli)?
The MIC was 25 µg/mL (≈ 44.7 µM).

And the MIC (Pseudomonas aeruginosa [3])?
Its MIC is 50 µg/mL (≈ 89.3 µM).

What about the MIC (Enterobacter cloacae) of the same compound?
Its MIC is 50 µg/mL (≈ 89.3 µM).

What about the MIC (Staphylococcus aureus) of the same compound?
Its MIC is 6.3 µg/mL (≈ 11.3 µM).

What about the MIC (Streptococcus pyogenes [4]) of the same compound?
Its MIC is 12.5 µg/mL (≈ 22.3 µM).

What about the MIC (Salmonella typhimurium) of the same compound?
Its MIC is 50 µg/mL (≈ 89.3 µM).

With CC(COS(=O)(=O)O)[C@H]1CC[C@H]2[C@@H]3[C@H](F)C[C@H]4C[C@H](NCCCNCCCCN)CC[C@]4(C)[C@H]3CC[C@]12C (single isomer, unassigned) as the compound, how does the MIC (Pseudomonas aeruginosa [1]) read?
The MIC was 50 µg/mL (≈ 89.3 µM).

And the MIC (Streptococcus pyogenes [2])?
The MIC was 12.5 µg/mL (≈ 22.3 µM).

What about the MIC (Escherichia coli) of the same compound?
The MIC was 25 µg/mL (≈ 44.7 µM).

And the MIC (Pseudomonas aeruginosa [3])?
Its MIC is 25 µg/mL (≈ 44.7 µM).

And the MIC (Enterobacter cloacae)?
Its MIC is 100 µg/mL (≈ 179 µM).

And the MIC (Staphylococcus aureus)?
The MIC was 12.5 µg/mL (≈ 22.3 µM).

What about the MIC (Streptococcus pyogenes [4]) of the same compound?
Its MIC is 12.5 µg/mL (≈ 22.3 µM).

What about the MIC (Salmonella typhimurium) of the same compound?
The MIC was 100 µg/mL (≈ 179 µM).

C[C@@H](CO)[C@H]1CC[C@H]2[C@@H]3[C@H](O)C[C@H]4C[C@@H](NCCCNCCCCN)CC[C@]4(C)[C@H]3CC[C@]12C was tested. Which MIC (Pseudomonas aeruginosa [1]) did it give?
Its MIC is 25 µg/mL (≈ 52.3 µM).

What about the MIC (Streptococcus pyogenes [2]) of the same compound?
Its MIC is 25 µg/mL (≈ 52.3 µM).

What about the MIC (Escherichia coli) of the same compound?
The MIC was 25 µg/mL (≈ 52.3 µM).

And the MIC (Pseudomonas aeruginosa [3])?
Its MIC is 12.5 µg/mL (≈ 26.2 µM).

What about the MIC (Enterobacter cloacae) of the same compound?
Its MIC is 50 µg/mL (≈ 105 µM).

And the MIC (Staphylococcus aureus)?
Its MIC is 12.5 µg/mL (≈ 26.2 µM).

What about the MIC (Streptococcus pyogenes [4]) of the same compound?
Its MIC is 25 µg/mL (≈ 52.3 µM).

And the MIC (Salmonella typhimurium)?
Its MIC is 50 µg/mL (≈ 105 µM).

Which MIC (Pseudomonas aeruginosa [1]) does the source give for CC(CO)[C@H]1CC[C@H]2[C@@H]3CC[C@H]4C[C@@H](NCCCNCCCCN)CC[C@]4(C)[C@H]3CC[C@]12C (single isomer, unassigned) here?
Its MIC is 6.3 µg/mL (≈ 13.6 µM).

What about the MIC (Streptococcus pyogenes [2]) of the same compound?
Its MIC is 100 µg/mL (≈ 217 µM).

What about the MIC (Escherichia coli) of the same compound?
Its MIC is 12.5 µg/mL (≈ 27.1 µM).

And the MIC (Pseudomonas aeruginosa [3])?
The MIC was 12.5 µg/mL (≈ 27.1 µM).

What about the MIC (Enterobacter cloacae) of the same compound?
Its MIC is 100 µg/mL (≈ 217 µM).

What about the MIC (Staphylococcus aureus) of the same compound?
The MIC was 6.3 µg/mL (≈ 13.6 µM).

What about the MIC (Streptococcus pyogenes [4]) of the same compound?
Its MIC is 100 µg/mL (≈ 217 µM).

And the MIC (Salmonella typhimurium)?
Its MIC is 50 µg/mL (≈ 108 µM).

Which MIC (Pseudomonas aeruginosa [1]) does the source give for CC(COS(=O)(=O)O)[C@H]1CC[C@H]2[C@@H]3[C@H](F)C[C@H]4C[C@@H](NCCCNCCCCN)CC[C@]4(C)[C@H]3CC[C@]12C (single isomer, unassigned) here?
The MIC was 25 µg/mL (≈ 44.7 µM).

What about the MIC (Streptococcus pyogenes [2]) of the same compound?
The MIC was 50 µg/mL (≈ 89.3 µM).

And the MIC (Escherichia coli)?
The MIC was 50 µg/mL (≈ 89.3 µM).

What about the MIC (Pseudomonas aeruginosa [3]) of the same compound?
The MIC was 12.5 µg/mL (≈ 22.3 µM).

What about the MIC (Enterobacter cloacae) of the same compound?
Its MIC is 100 µg/mL (≈ 179 µM).

What about the MIC (Staphylococcus aureus) of the same compound?
Its MIC is 25 µg/mL (≈ 44.7 µM).

What about the MIC (Streptococcus pyogenes [4]) of the same compound?
The MIC was 50 µg/mL (≈ 89.3 µM).

And the MIC (Salmonella typhimurium)?
The MIC was 100 µg/mL (≈ 179 µM).

How did the MIC (Pseudomonas aeruginosa [1]) turn out when C[C@@H](COS(=O)(=O)O)[C@H]1CC[C@H]2[C@@H]3[C@H](O)C[C@H]4C[C@@H](NCCCNCCCCN)CC[C@]4(C)[C@H]3CC[C@]12C was run?
Its MIC is 50 µg/mL (≈ 89.6 µM).

And the MIC (Escherichia coli)?
The MIC was 50 µg/mL (≈ 89.6 µM).

What about the MIC (Pseudomonas aeruginosa [3]) of the same compound?
Its MIC is 50 µg/mL (≈ 89.6 µM).

And the MIC (Enterobacter cloacae)?
The MIC was 50 µg/mL (≈ 89.6 µM).

What about the MIC (Staphylococcus aureus) of the same compound?
The MIC was 50 µg/mL (≈ 89.6 µM).

And the MIC (Streptococcus pyogenes [4])?
The MIC was 50 µg/mL (≈ 89.6 µM).

What about the MIC (Salmonella typhimurium) of the same compound?
Its MIC is 50 µg/mL (≈ 89.6 µM).

With CC(CO)[C@H]1CC[C@H]2[C@@H]3[C@@H](F)C[C@H]4C[C@H](NCCCNCCCCN)CC[C@]4(C)[C@H]3CC[C@]12C (single isomer, unassigned) as the compound, how does the MIC (Pseudomonas aeruginosa [1]) read?
Its MIC is 25 µg/mL (≈ 52.1 µM).

And the MIC (Streptococcus pyogenes [2])?
Its MIC is 12.5 µg/mL (≈ 26.1 µM).

And the MIC (Escherichia coli)?
Its MIC is 12.5 µg/mL (≈ 26.1 µM).

What about the MIC (Pseudomonas aeruginosa [3]) of the same compound?
The MIC was 12.5 µg/mL (≈ 26.1 µM).

What about the MIC (Enterobacter cloacae) of the same compound?
The MIC was 100 µg/mL (≈ 208 µM).

What about the MIC (Staphylococcus aureus) of the same compound?
Its MIC is 6.3 µg/mL (≈ 13.1 µM).

What about the MIC (Streptococcus pyogenes [4]) of the same compound?
The MIC was 6.3 µg/mL (≈ 13.1 µM).

And the MIC (Salmonella typhimurium)?
Its MIC is 50 µg/mL (≈ 104 µM).

With CC(CO)[C@H]1CC[C@H]2[C@@H]3[C@@H](F)C[C@H]4C[C@@H](NCCCNCCCCN)CC[C@]4(C)[C@H]3CC[C@]12C (single isomer, unassigned) as the compound, how does the MIC (Pseudomonas aeruginosa [1]) read?
The MIC was 6.3 µg/mL (≈ 13.1 µM).

And the MIC (Streptococcus pyogenes [2])?
The MIC was 12.5 µg/mL (≈ 26.1 µM).

What about the MIC (Escherichia coli) of the same compound?
The MIC was 12.5 µg/mL (≈ 26.1 µM).

And the MIC (Pseudomonas aeruginosa [3])?
Its MIC is 12.5 µg/mL (≈ 26.1 µM).

And the MIC (Enterobacter cloacae)?
Its MIC is 100 µg/mL (≈ 208 µM).

What about the MIC (Staphylococcus aureus) of the same compound?
Its MIC is 6.3 µg/mL (≈ 13.1 µM).

What about the MIC (Streptococcus pyogenes [4]) of the same compound?
Its MIC is 12.5 µg/mL (≈ 26.1 µM).

What about the MIC (Salmonella typhimurium) of the same compound?
Its MIC is 100 µg/mL (≈ 208 µM).

CC(CO)[C@H]1CC[C@H]2[C@@H]3[C@H](F)C[C@H]4C[C@@H](NCCCNCCCCN)CC[C@]4(C)[C@H]3CC[C@]12C (single isomer, unassigned) was tested. Which MIC (Pseudomonas aeruginosa [1]) did it give?
The MIC was 3.1 µg/mL (≈ 6.46 µM).

And the MIC (Streptococcus pyogenes [2])?
The MIC was 6.3 µg/mL (≈ 13.1 µM).

What about the MIC (Escherichia coli) of the same compound?
Its MIC is 6.3 µg/mL (≈ 13.1 µM).

And the MIC (Pseudomonas aeruginosa [3])?
The MIC was 6.3 µg/mL (≈ 13.1 µM).

What about the MIC (Enterobacter cloacae) of the same compound?
The MIC was 100 µg/mL (≈ 208 µM).

What about the MIC (Staphylococcus aureus) of the same compound?
The MIC was 6.3 µg/mL (≈ 13.1 µM).

What about the MIC (Streptococcus pyogenes [4]) of the same compound?
The MIC was 6.3 µg/mL (≈ 13.1 µM).

And the MIC (Salmonella typhimurium)?
The MIC was 100 µg/mL (≈ 208 µM).

Source: ChEMBL document CHEMBL1146250, “Synthesis and antimicrobial activity of 7-fluoro-3-aminosteroids” (2007)
